# Data taken from US20210379079A1, “COMPOSITIONS COMPRISING CD20 INHIBITORS AND BISFLUOROALKYL-1,4-BENZODIAZEPINONE COMPOUNDS AND METHODS OF USE THEREOF” (Ayala Pharmaceuticals Inc., priority 2018, published 2021).
# Columns and labels:
# Assay in all cases: Cell surface CD20 levels by flow cytometry (FACS) after GSI treatment
# Format in all cases: cell-based
# SP49 cells = details: for cell surface CD20 levels: SP49 (MCL with Notch4 GOF), 7 days, 0-10000 nM, FIGS. 1A-1B
# Experimental: (§1) The effect of γ-secretase inhibitors (GSIs) on levels of CD20 in lymphoma cell lines was examined (FIG. 1). Cells from five different lymphoma cell lines (SP49 (mantle cell lymphoma (MCL) with Notch4 GOF); Toledo (Diffuse large B-cell lymphoma (DLBCL)); RC (Double Hit DLBCL-MYC, BCL2); SUDHL-4 (DLBCL); and SUDHL-6 (DLBCL)) were treated for 7 days with 0, 1 nM, 10 nM, 100 nM, 500 nM, 1000 nM, and 10000 nM of the following GSIs: Compound 1 (FIG. 1A) or Compound 22 (FIG. 1B). Cell surface CD20 levels were observed by flow cytometry (FACS analysis).
# (§2) In a separate experiment, cells from lymphoma cell lines SUDHL-4 (DLBCL); Rec-1 (MCL); and SP49 (MCL) were seeded at 1×10^4 cells/well in a total volume of 250 μl into a 96-well plate. The cells were cultured in RPMI supplemented with 10% FCS.
# (§3) Compound 1 or Compound 22 were added to the cell cultures at concentrations of 10, 1, 0.5, 0.1, 0.01, 0.001 μM. Following 7 days of incubation at 37° C., the cells were collected and stained with anti CD20 antibody and cell surface CD20 levels were immediately analyzed by flow cytometry (FACS analysis).
# SUDHL-4 cells = details: SUDHL-4 (DLBCL); for CD20 levels: separate experiment, 0.001-10 μM, 7 days at 37° C., FIG. 2
# Experimental: as §1, §2, §3
# Rec-1 (MCL) = details: separate experiment, 0.001-10 μM, 7 days at 37° C., FIG. 2
# Experimental: as §2, §3
SMILES,cell surface CD20 levels (SP49 cells),CD20 levels (SUDHL-4 cells),CD20 levels (Rec-1 (MCL)),"CD20 levels (SP49 cells; separate experiment, SP49 (MCL), 0.001-10 μM, 7 days at 37° C., FIG. 2)","cell surface CD20 levels (SUDHL-4 cells; 7 days, 0-10000 nM, FIG. 1A)"
"Cc1cccc2c1NC(=O)[C@@H](NC(=O)[C@H](CCC(F)(F)F)[C@H](CCC(F)(F)F)C(N)=O)N=C2c1cccc(F)c1 [Compound 22, (2R,3S)-N-((3S)-5-(3-fluorophenyl)-9-methyl-2-oxo-2,3-dihydro-1H-1,4-benzodiazepin-3-yl)-2,3-bis(3,3,3-trifluoropropyl)succinamide]",increased cell surface CD20 levels,dose-dependent increase in CD20 levels,dose-dependent increase in CD20 levels,–,–
"CN1C(=O)[C@@H](NC(=O)[C@H](CCC(F)(F)F)[C@H](CCC(F)(F)F)C(N)=O)N=C(c2ccccc2)c2ccccc21 [Compound 1, (2R,3S)-N-((3S)-1-methyl-2-oxo-5-phenyl-2,3-dihydro-1H-1,4-benzodiazepin-3-yl)-2,3-bis(3,3,3-trifluoropropyl)succinamide]",increased cell surface CD20 levels,dose-dependent increase in CD20 levels,dose-dependent increase in CD20 levels,dose-dependent increase in CD20 levels,increased cell surface CD20 levels
